Measured values: US20150087627A1, “COMBINATION OF KINASE INHIBITORS AND USES THEREOF” (Intellikine LLC, priority 2011, published 2015)
Read-outs that look alike come from different tables or passages of the source.

Legend:
Type in all cases: biochemical
PI3K β (p110β/p85α) = target: T1, PI3K β (p110β/p85α) (Homo sapiens, UniProt P42338); experiment: PI 3-Kinase (human) HTRF assay, PI3K β; conditions: read-out: PI3K β IC50
T1 construct: purchased Upstate / Millipore Corporation

PI3K δ = target: T2, PI3K δ (Homo sapiens, UniProt O00329); experiment: PI 3-Kinase (human) HTRF assay, PI3K δ; conditions: read-out: PI3K δ IC50
T2 construct: purchased Upstate / Millipore Corporation
T2 sequence (O00329 whole entry): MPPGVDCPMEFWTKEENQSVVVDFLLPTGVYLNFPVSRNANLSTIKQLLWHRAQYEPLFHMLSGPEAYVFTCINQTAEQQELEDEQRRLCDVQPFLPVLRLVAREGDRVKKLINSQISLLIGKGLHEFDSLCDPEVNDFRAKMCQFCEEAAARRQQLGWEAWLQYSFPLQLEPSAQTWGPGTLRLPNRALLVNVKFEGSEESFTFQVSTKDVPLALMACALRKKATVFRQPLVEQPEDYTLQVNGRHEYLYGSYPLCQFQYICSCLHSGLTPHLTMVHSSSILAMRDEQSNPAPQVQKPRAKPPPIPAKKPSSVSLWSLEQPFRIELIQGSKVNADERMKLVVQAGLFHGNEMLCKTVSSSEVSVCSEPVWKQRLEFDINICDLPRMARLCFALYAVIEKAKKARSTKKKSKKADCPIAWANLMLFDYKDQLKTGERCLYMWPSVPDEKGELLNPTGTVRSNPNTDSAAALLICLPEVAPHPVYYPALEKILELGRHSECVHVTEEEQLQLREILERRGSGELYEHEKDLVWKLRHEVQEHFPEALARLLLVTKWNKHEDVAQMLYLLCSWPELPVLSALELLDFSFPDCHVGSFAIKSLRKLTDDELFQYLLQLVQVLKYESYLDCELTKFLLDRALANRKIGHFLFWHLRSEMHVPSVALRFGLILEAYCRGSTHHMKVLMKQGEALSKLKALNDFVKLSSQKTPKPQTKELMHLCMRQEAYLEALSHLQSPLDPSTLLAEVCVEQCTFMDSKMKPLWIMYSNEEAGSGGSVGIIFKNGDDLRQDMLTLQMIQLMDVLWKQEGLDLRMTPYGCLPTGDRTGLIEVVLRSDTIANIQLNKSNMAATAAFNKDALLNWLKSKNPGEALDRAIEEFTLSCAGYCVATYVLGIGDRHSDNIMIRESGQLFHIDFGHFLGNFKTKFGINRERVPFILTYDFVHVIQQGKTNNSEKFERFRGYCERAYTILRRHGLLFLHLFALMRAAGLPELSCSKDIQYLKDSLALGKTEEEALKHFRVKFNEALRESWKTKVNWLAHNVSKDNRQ
T2 sequence (P27986 whole entry partner): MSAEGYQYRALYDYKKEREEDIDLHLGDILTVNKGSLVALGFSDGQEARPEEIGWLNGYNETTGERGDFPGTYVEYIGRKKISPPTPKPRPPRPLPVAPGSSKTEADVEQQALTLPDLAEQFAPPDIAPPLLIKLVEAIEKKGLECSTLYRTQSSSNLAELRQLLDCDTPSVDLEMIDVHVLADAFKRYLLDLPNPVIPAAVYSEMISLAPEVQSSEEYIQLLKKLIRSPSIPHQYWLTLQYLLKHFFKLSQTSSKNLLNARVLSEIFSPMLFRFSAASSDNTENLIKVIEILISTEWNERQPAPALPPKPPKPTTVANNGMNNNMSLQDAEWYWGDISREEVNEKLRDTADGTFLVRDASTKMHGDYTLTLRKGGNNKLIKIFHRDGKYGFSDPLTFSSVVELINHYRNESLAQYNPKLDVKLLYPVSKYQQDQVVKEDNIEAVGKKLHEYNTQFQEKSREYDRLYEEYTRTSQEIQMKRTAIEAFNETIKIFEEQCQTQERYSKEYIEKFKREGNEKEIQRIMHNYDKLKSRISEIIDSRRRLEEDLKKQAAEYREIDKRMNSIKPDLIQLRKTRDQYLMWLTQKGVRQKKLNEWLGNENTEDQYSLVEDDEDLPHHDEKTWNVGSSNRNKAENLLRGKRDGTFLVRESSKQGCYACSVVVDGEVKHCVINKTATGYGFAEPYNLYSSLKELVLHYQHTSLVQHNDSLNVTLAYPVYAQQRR

PI3K α (p110α/p85α) = target: T3, PI3K α (p110α/p85α) (Homo sapiens, UniProt P42336); experiment: PI 3-Kinase (human) HTRF assay, PI3K α; conditions: read-out: PI3K α IC50
T3 construct: purchased Upstate / Millipore Corporation
T3 sequence (P42336 whole entry): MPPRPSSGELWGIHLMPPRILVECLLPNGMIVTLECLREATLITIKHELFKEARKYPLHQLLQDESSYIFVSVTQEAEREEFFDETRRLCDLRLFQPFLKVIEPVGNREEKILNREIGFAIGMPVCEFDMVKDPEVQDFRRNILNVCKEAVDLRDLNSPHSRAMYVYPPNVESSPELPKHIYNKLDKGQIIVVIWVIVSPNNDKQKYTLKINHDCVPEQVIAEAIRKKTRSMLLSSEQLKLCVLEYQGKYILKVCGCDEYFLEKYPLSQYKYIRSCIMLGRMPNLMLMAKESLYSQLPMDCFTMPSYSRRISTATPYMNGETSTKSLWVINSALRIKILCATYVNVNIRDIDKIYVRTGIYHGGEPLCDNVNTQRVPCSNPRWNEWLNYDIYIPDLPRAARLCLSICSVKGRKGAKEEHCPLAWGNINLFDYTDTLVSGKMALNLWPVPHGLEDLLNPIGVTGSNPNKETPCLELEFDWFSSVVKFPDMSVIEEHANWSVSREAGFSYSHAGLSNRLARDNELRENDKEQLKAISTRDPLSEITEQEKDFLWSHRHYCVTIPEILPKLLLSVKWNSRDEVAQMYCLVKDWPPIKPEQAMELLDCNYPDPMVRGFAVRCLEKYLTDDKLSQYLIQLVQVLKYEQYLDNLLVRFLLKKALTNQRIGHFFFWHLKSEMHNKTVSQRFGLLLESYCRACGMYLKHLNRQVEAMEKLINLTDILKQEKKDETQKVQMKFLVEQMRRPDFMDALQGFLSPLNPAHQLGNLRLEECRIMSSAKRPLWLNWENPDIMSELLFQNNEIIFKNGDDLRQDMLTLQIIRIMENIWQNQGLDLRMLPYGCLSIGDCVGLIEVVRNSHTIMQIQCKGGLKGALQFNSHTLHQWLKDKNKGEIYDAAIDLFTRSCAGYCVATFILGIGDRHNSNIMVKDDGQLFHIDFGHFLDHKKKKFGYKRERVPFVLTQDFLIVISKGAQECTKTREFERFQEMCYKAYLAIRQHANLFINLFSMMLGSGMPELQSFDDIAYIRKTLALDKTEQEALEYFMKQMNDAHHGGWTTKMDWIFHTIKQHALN
T3 sequence (P27986 whole entry partner): as the sequence (P27986 whole entry partner) above

T1 sequence (P42338 whole entry): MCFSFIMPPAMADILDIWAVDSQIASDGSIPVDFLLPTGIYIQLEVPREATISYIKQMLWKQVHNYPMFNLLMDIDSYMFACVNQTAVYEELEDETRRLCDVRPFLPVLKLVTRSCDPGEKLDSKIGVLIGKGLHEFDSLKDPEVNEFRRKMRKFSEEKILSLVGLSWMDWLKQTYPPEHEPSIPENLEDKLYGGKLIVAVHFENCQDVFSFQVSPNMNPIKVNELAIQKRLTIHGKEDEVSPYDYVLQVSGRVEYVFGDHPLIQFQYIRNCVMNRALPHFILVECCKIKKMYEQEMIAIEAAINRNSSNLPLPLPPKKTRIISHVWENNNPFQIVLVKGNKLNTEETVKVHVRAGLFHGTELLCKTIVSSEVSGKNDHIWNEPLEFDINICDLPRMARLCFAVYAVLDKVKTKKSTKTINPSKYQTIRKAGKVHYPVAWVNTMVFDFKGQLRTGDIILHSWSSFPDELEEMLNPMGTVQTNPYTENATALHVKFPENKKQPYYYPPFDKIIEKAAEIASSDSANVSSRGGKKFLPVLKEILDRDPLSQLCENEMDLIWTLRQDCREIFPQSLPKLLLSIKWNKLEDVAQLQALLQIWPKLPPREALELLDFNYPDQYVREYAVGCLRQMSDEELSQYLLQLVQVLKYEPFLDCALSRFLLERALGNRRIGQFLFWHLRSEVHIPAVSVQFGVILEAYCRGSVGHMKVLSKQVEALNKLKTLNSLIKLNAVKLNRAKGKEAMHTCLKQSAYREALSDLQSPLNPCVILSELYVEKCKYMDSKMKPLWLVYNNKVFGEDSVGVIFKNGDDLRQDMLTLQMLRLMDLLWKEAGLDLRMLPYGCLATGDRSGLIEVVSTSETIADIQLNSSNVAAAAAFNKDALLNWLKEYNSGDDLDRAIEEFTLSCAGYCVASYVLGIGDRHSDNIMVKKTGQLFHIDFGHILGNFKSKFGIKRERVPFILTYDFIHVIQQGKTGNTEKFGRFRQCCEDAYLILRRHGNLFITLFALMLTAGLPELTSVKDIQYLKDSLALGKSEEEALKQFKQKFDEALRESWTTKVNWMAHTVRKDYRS
T1 sequence (P27986 whole entry partner): as the sequence (P27986 whole entry partner) above

Row | SMILES | IC50 (PI3K β (p110β/p85α)) [nM] | IC50 (PI3K δ) [nM] | IC50 (PI3K α (p110α/p85α)) [nM] | IC50 (PI3K β (p110β/p85α); Table 4 (PI3K α inhibitors)) [nM] | IC50 (PI3K α (p110α/p85α); Table 4 (PI3K α inhibitors)) [nM] | IC50 (PI3K δ; Table 4 (PI3K α inhibitors)) [nM]
1 | Nc1nc2cc(-c3ccc4nccc(-c5cn[nH]c5)c4c3)ccc2o1 [Compound 20] | < 100 | < 100 | < 100 |  |  | 
2 | Nc1nc2cc(-c3ccc4ncn(C5CCNCC5)c(=O)c4c3)ccc2o1 [Compound 75] | < 10000 | > 10000 | < 100 |  |  | 
3 | Cn1cc(-c2cnc3ccc(-c4ccc5oc(N)nc5c4)cc3n2)cn1 [Compound 94] | < 1000 | < 10000 | < 100 |  |  | 
4 | CN(C)CC(=O)N1CCC(Nc2ncnc3ccc(-c4ccc5oc(N)nc5c4)cc23)CC1 [Compound 103] | < 1000 | < 1000 | < 100 |  |  | 
5 | Nc1nc2cc(-c3ccc4ncc(C(=O)N5CCS(=O)(=O)CC5)n4c3)ccc2o1 [Compound 107] | > 10000 | > 10000 | < 1000 |  |  | 
6 | CC(N)C(=O)N1CCN(c2cnc3ccc(-c4ccc5oc(N)nc5c4)cc3n2)CC1 (stereo not shown) [Compound 134] | < 1000 | < 1000 | < 100 |  |  | 
7 | CN1CCN(C(=O)c2cnc3ccc(-c4ccc5sc(N)nc5c4)cn23)CC1 [Compound 144] | < 10000 | > 10000 | < 1000 |  |  | 
8 | CN1CCN(C(=O)c2cnc3ccc(-c4ccc5nc(N)oc5c4)cn23)CC1 [Compound 145] | < 10000 | > 10000 | < 1000 |  |  | 
9 | C[C@H]1CN(c2cnc3ccc(-c4ccc5oc(N)nc5c4)cc3n2)CCN1 [Compound 178] | < 100 | < 1000 | < 100 |  |  | 
10 | CCNC(=O)c1cnc2ccc(-c3ccc4oc(N)nc4c3)cn12 [Compound 188] | < 1000 | < 1000 | < 100 |  |  | 
11 | Nc1nc2cc(-c3ccc4ncc(C(=O)N5CCC(O)C5)n4c3)ccc2o1 (stereo not shown) [Compound 202] | < 10000 | < 10000 | < 100 |  |  | 
12 | Nc1nc2cc(-c3ccc4ncc(N5CC(O)C5)nc4c3)ccc2o1 [Compound 216] | < 1000 | < 10000 | < 100 |  |  | 
13 | CN1CCN(C2CCN(c3cnc4ccc(-c5ccc6oc(N)nc6c5)cc4n3)CC2)CC1 [Compound 227] | < 1000 | < 100 | < 100 |  |  | 
14 | CC(Oc1nc(-c2ccc3oc(N)nc3c2)cnc1N)C(F)(F)F (stereo not shown) [Compound 239] | < 1000 | < 10000 | < 10000 |  |  | 
15 | CC(=O)Nc1nc2cc(-c3ccc4oc(N)nc4c3)ccc2o1 [Compound 244] | > 10000 | > 10000 | > 10000 |  |  | 
16 | NC(=O)[C@@H]1CCCN1C(=O)C1CN(c2cnc3ccc(-c4ccc5oc(N)nc5c4)cc3n2)C1 [Compound 283] | > 10000 | > 10000 | < 100 |  |  | 
17 | NC(=O)[C@H]1CCCN1C(=O)C1CN(c2cnc3ccc(-c4ccc5oc(N)nc5c4)cc3n2)C1 [Compound 284] | < 10000 | < 10000 | < 100 |  |  | 
18 | Nc1nc2cc(-c3ccc4nnc(-c5cccnc5)n4c3)ccc2o1 [Compound 300] | < 10000 | > 10000 | < 10000 |  |  | 
19 | CN(C)C1CCN(C(=O)c2cnc3ccc(-c4ccc5oc(N)nc5c4)cn23)CC1 [Compound 304] | > 10000 | > 10000 | < 1000 |  |  | 
20 | Nc1nc2cc(-c3ccc4ncc(N5CC(N6CCNC(=O)C6)C5)nc4c3)ccc2o1 [Compound 325] | < 1000 | < 10000 | < 100 |  |  | 
21 | C[C@H]1CN(c2cnc3cccc(-c4ccc5oc(N)nc5c4)c3n2)CCN1 [Compound 342] | > 10000 | > 10000 | > 10000 |  |  | 
22 | C[C@H]1CN(c2cnc3cccc(-c4ccc5nc(N)oc5c4)c3n2)CCN1 [Compound 343] | < 10000 | > 10000 | > 10000 |  |  | 
23 | C[C@H]1CN(c2cnc3ccc(-c4ccc5oc(N)nc5c4)nc3n2)CCN1 [Compound 552] |  |  |  | < 100 | < 1000 | 
24 | CN1CCN(c2cnc3ccc(-c4ccc5oc(N)nc5c4)nc3n2)CC1 [Compound 555] |  |  |  | < 1000 | < 1000 | 
25 | C[C@@H]1CN(C2CN(c3cnc4ccc(-c5ccc6oc(N)nc6c5)nc4n3)C2)CCN1C [Compound 576] |  |  |  | > 10000 | < 100 | 
26 | C[C@@H]1CN(C2CN(c3cnc4ccc(-c5ccc6oc(N)nc6c5)nc4c3)C2)CCN1C [Compound 608] |  |  |  |  | < 100 | < 1000

Next, values leading:

Row | IC50 (PI3K β (p110β/p85α)) [nM] | IC50 (PI3K δ) [nM] | IC50 (PI3K α (p110α/p85α)) [nM] | IC50 (PI3K β (p110β/p85α); Table 4 (PI3K α inhibitors)) [nM] | IC50 (PI3K α (p110α/p85α); Table 4 (PI3K α inhibitors)) [nM] | IC50 (PI3K δ; Table 4 (PI3K α inhibitors)) [nM] | SMILES
27 |  | < 100 | < 100 |  |  |  | Nc1nc2cc(-c3ccc4ncc(-c5cccnc5)n4c3)ccc2o1 [Compound 37]
28 |  | < 100 | < 100 |  |  |  | Nc1nc2cc(-c3ccc4ncc(C#CC5CC5)n4c3)ccc2o1 [Compound 39]
29 | < 1000 | < 1000 | < 100 |  |  |  | Nc1nc2cc(-c3ccc4ncc(-c5cn[nH]c5)nc4c3)ccc2o1 [Compound 78]
30 | < 100 | > 10000 | < 1000 |  |  |  | CN1CCN(c2cnc3ccc(-c4ccc5nc(N)oc5c4)cc3n2)CC1 [Compound 118]
31 | < 1000 | < 1000 | < 1000 |  |  |  | CC1CN(c2cnc3ccc(-c4ccc5oc(N)nc5c4)cc3n2)CC(C)N1 (stereo not shown) [Compound 131]
32 | < 1000 | < 10000 | < 100 |  |  |  | CC1CN(c2cnc3ccc(-c4ccc5oc(N)nc5c4)cc3n2)CCO1 (stereo not shown) [Compound 173]
33 | < 1000 |  | < 100 |  |  |  | C[C@@H]1CN(c2cnc3ccc(-c4ccc5oc(N)nc5c4)cc3n2)CCN1 [Compound 179]
34 | < 10000 | < 10000 | < 100 |  |  |  | CS(=O)(=O)CCN1CCN(C(=O)c2cnc3ccc(-c4ccc5oc(N)nc5c4)cn23)CC1 [Compound 198]
35 | < 1000 | > 10000 | < 100 |  |  |  | Nc1nc2cc(-c3ccc4ncc(C(=O)N5CCC(N)CC5)n4c3)ccc2o1 [Compound 204]
36 | < 1000 | < 1000 | < 100 |  |  |  | CC(C)(N)C(=O)N1CCN(c2cnc3ccc(-c4ccc5oc(N)nc5c4)cc3n2)CC1 [Compound 213]
37 | < 1000 | < 100 | < 100 |  |  |  | Nc1nc2cc(-c3ccc4ncc(NCCCN5CCCC5)nc4c3)ccc2o1 [Compound 221]
38 | < 1000 | > 10000 | < 1000 |  |  |  | Nc1nc2cc(-c3ccc4nnc(-c5ccncc5)n4c3)ccc2o1 [Compound 229]
39 | > 10000 | > 10000 | < 1000 |  |  |  | NC(=O)[C@H]1CCCN1C(=O)c1cnc2ccc(-c3ccc4oc(N)nc4c3)cn12 [Compound 260]
40 | < 1000 | > 10000 | < 100 |  |  |  | Nc1nc2cc(-c3ccc4ncc(N5CCN(C6CC6)CC5)nc4c3)ccc2o1 [Compound 261]
41 | < 10000 |  | < 100 |  |  |  | Nc1nc2cc(-c3ccc4ncc(C(=O)N5CC[C@H](O)C5)n4c3)ccc2o1 [Compound 264]
42 | < 10000 |  | < 100 |  |  |  | Nc1nc2cc(-c3ccc4ncc(C(=O)N5CC[C@@H](O)C5)n4c3)ccc2o1 [Compound 265]
43 | > 10000 | < 10000 | < 1000 |  |  |  | CCN(CC)CCCn1cnc2ccc(-c3ccc4oc(N)nc4c3)cc2c1=O [Compound 281]
44 | < 10000 | < 1000 | < 1000 |  |  |  | Nc1nc2cc(-c3ccc4ncc(C(=O)NCCN5CCCC5)n4c3)ccc2o1 [Compound 296]

Row | IC50 (PI3K β (p110β/p85α)) [nM] | IC50 (PI3K δ) [nM] | IC50 (PI3K α (p110α/p85α)) [nM] | IC50 (PI3K β (p110β/p85α); Table 4 (PI3K α inhibitors)) [nM] | IC50 (PI3K α (p110α/p85α); Table 4 (PI3K α inhibitors)) [nM] | IC50 (PI3K δ; Table 4 (PI3K α inhibitors)) [nM] | SMILES
45 | < 1000 | > 10000 | < 1000 |  |  |  | C[C@H]1CN(c2cnc3ccc(-c4ccc5nc(N)sc5c4)cc3n2)CCN1 [Compound 308]
46 | > 10000 | > 10000 | > 10000 |  |  |  | C[C@H]1CN(c2cnc3ccc(-c4cccc5c(N)nsc45)cc3n2)CCN1 [Compound 321]
47 | < 1000 | < 10000 | < 1000 |  |  |  | CC1(C)CN(c2cnc3ccc(-c4ccc5oc(N)nc5c4)cc3n2)CCN1 [Compound 336]
48 | < 10000 | > 10000 | < 100 |  |  |  | Nc1nc2cc(-c3ccn4ncc(C(=O)N5CCCC5)c4c3)ccc2o1 [Compound 346]
49 | < 1000 |  | < 100 |  |  |  | CN(C)[C@H]1CCN(c2cnc3ccc(-c4ccc5oc(N)nc5c4)cc3n2)C1 [Compound 382]
50 |  |  | < 10000 |  |  |  | CN1CCN(c2cnc3ccc(-c4ccc5oc(N)nc5c4)cc3n2)C(=O)C1 [Compound 390]
51 | > 10000 |  | < 100 |  |  |  | C[C@H]1CCCN1C(=O)c1cnc2ccc(-c3ccc4oc(N)nc4c3)cn12 [Compound 482]
52 | > 10000 | > 10000 |  |  |  |  | Cn1ncc2c(-c3ccc4ncc(C(=O)N5CCOCC5)n4c3)cncc21 [Compound 537]
53 | < 10000 | < 10000 |  |  |  |  | Nc1nc2cc(-c3ccc4ncc(C(=O)NCCOCCO)n4c3)ccc2o1 [Compound 550]
54 |  |  |  |  | < 1000 | > 10000 | Nc1nc2cc(-c3ccc4ncc(-c5cccnc5)nc4n3)ccc2o1 [Compound 554]
55 |  |  |  |  | < 100 |  | Nc1nc2cc(-c3ccc4ncc(-c5cccnc5)cc4n3)ccc2o1 [Compound 567]
56 |  |  |  |  | < 100 |  | NCC(=O)N1CCN(c2cnc3ccc(-c4ccc5oc(N)nc5c4)nc3n2)CC1 [Compound 584]
57 |  |  |  | < 1000 | < 100 |  | C[C@@H]1CN(c2cnc3ccc(-c4ccc5oc(N)nc5c4)nc3c2)CCN1 [Compound 599]
58 |  |  |  | > 10000 |  | > 10000 | C[C@@H]1COCCN1C1CN(c2cnc3ccc(-c4ccc5oc(N)nc5c4)nc3n2)C1 [Compound 600]
59 |  |  |  |  | < 100 |  | Nc1nc2cc(-c3ccc4ncc(N5CC(N6CCN(C7CC7)CC6)C5)nc4n3)ccc2o1 [Compound 620]
60 |  |  |  | > 10000 |  | > 10000 | Nc1nc2cc(-c3cnc4ccc(N5CCOCC5)nc4c3)ccc2o1 [Compound 624]
61 |  |  |  | > 10000 |  | > 10000 | CC(C)(N)C(=O)N1CCN(c2ccc3ncc(-c4ccc5oc(N)nc5c4)cc3n2)CC1 [Compound 633]
